Each compound was assayed against Histone deacetylase (assay: Inhibition of histone deacetylase (HDAC) activity in HeLa cell nuclear extract).
Type: cell-based, Homo sapiens

Row | SMILES | IC50 [nM]
1 | CC(/C=C/C(=O)O)=C\c1ccc(NS(=O)(=O)c2ccc(Cl)cc2)cc1 | > 100000
2 | CC(/C=C/C(=O)NO)=C\c1ccc(NS(=O)(=O)c2ccccc2)cc1 | 172
3 | COc1ccc(S(=O)(=O)Nc2ccc(/C=C/C=C/C(=O)NO)cc2)cc1 | 10400
4 | COc1ccc(S(=O)(=O)Nc2ccc(/C=C(C)/C=C/C(=O)NO)cc2)cc1 | 74
5 | CC(/C=C/C(=O)NO)=C\c1ccc(N(C)C)cc1 | 788
6 | O=C(/C=C/C=C/c1ccccc1)NO | 279

The remaining lines, values ahead:

Row | IC50 [nM] | SMILES
7 | 252 | O=C(/C=C/C=C/c1ccc(Cl)cc1)NO
8 | 1170 | CC(CCC(=O)NO)Cc1ccc(NS(=O)(=O)c2ccc(Cl)cc2)cc1 (configuration not stated)
9 | 49 | CC(/C=C/C(=O)NO)=C\c1ccc(NS(=O)(=O)c2ccc(Cl)cc2)cc1
10 | 302 | CC(/C=C/C(=O)NO)=C\c1ccc(Cl)cc1
11 | 1700 | CN(C)c1ccc(/C=C/C=C/C(=O)NO)cc1
12 | 2580 | O=C(CCCCc1ccc(Cl)cc1)NO
